This note sets out measurements from publication doi:10.1101/2021.06.15.448612v1 (biorxiv, 2021).

A word on the Kd: it is the concentration at which binding is half-saturated.

In the assay the target is MsbA (Escherichia coli, UniProt P60752). The assay can be described thus: isothermal titration calorimetry. The class given is binding. For orientation: In ITC the heat of successive injections is recorded.
Chain of MsbA (P60752 2-582): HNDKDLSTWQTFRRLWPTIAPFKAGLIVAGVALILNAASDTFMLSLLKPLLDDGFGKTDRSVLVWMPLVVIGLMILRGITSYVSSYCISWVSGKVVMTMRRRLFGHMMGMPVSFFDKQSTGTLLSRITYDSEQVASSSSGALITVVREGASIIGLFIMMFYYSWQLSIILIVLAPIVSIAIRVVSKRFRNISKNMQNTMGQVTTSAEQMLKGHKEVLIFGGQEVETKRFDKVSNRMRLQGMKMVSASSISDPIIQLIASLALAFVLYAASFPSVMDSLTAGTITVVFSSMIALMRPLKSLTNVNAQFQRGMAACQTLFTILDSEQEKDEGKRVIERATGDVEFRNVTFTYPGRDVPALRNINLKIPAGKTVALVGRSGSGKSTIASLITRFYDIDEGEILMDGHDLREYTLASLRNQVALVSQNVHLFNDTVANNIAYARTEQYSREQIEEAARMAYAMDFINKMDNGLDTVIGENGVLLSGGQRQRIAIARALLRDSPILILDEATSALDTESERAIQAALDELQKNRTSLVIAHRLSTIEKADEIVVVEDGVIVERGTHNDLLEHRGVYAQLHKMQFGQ

In turn, `Nc1ncnc2c1ncn2[C@@H]1O[C@H](COP(=O)(O)OP(=O)(O)NP(=O)(O)O)[C@@H](O)[C@H]1O` [AMP-PNP] gave a Kd of 5.1 µM.
